Assay results from paper PMC7993833, “EDP-938, a novel nucleoprotein inhibitor of respiratory syncytial virus, demonstrates potent antiviral activities in vitro and in a non-human primate model” (PLoS Pathogens, 2021).

How the values were obtained:
[1] = system: RSV-A Long; assay: RT-qPCR assay, RSV-A Long in BHK cells; format: cell-based; settings: human respiratory syncytial virus
[2] = system: RSV-A Long; assay: Time-of-addition study, CPE endpoint; format: cell-based, respiratory syncytial virus; settings: for EC50: human respiratory syncytial virus, read-out: EC50 for cytoprotection
Experimental: (§1) In order to help determine which step of the viral life cycle EDP-938 blocks multiple in vitro time-of-addition studies were performed. In the first study, EDP-938 was administered to cells infected with RSV-A Long at a MOI of 0.1 at 2 hours pre-infection (-2) or 2, 6, or 24 hours post-infection (hpi), and viral CPE evaluated 5 days later. […] A second time-of-addition study explored the ability of EDP-938 to protect not just a population experiencing a spreading infection, but individual cells already infected with RSV. Using a MOI of 3, which infects approximately 95% of all cells, virus was cold-adsorbed to the cells for 1 hour to synchronize infection before transfer to 37°C to induce fusion (marking the 0 hpi time point). Compound was added at times indicated and a 24 hpi RT-qPCR endpoint was employed to constrain viral replication cycle to a single complete cycle.
As above, but 8,000 HEp-2 cpw seeded 1-day pre-infection. 2h pre-infection compound or media added. Plates incubated 2h. Viral infection at 0.1 MOI, incubated 1h. Viral inoculum removed, cells washed, and media replaced with compound for -2h sample. Compound added at 2h, 6h, and 24h post-infection to appropriate plates. 5dpi cell viability calculated as described above.

[3] = system: RSV-A and RSV-B laboratory strains; assay: RT-qPCR assay, RSV laboratory strains across primate cell lines; format: cell-based; settings: human respiratory syncytial virus, in Primates, read-out: EC50 values, reduction in viral load by RT-qPCR (range over strains and cells)
Experimental: The activity of EDP-938 against both RSV-A and RSV-B was evaluated in vitro against multiple laboratory strains commonly used for antiviral screens in HEp-2 cells, human adenocarcinomic alveolar basal epithelial cells (A549), monkey kidney-derived cells (Vero), and Baby Hamster Kidney cells (BHK). Serial dilutions of the compound were added to cells infected with RSV-A at a MOI of 0.1 or RSV-B at an MOI of 0.5 and treated for 5 or 6 days, respectively.
HEp-2, Vero, and BHK were seeded at 8,000 cells per well (cpw) in growth medium (Dulbecco’s Modified Eagle Medium (DMEM) with 1% GlutaMAX, 1% Penicillin/Streptomycin (P/S), 1% Non-Essential Amino Acids (NEAA), 10% Fetal Bovine Serum (FBS)) or (Minimum Essential Medium (MEM) with 10% FBS, 1% NEAA, 1% P/S) or (Eagle’s Minimum Essential Medium with L-Glutamine, with 10% FBS, 1% P/S) respectively. A549 seeded at 3,000 cpw in F-12K Kaighn’s Modification nutrient mixture with 10% FBS, 1% NEAA, 1% P/S. Cells seeded at time of infection in 96-well plates, final well volume 100μL. Compounds suspended in DMSO, serially diluted and added to wells at 0.5% final DMSO concentration. […] Cytopathic effect (CPE) determined using ATPlite (Perkin Elmer) measured with Envision luminometer. […] All EC50s were calculated using the XLFit four-parameter logistic model 200 in Microsoft Excel.

[4] = system: RSV-A Long; assay: RT-qPCR assay, RSV-A Long in primary cotton rat lung cells; format: cell-based; settings: human respiratory syncytial virus, 120 h, RSV-A Long MOI 0.1, 5 days
[5] = system: RSV-A Long; assay: CPE assay (ATPlite), RSV-A Long in HEp-2 cells; format: cell-based; settings: human respiratory syncytial virus, 120 h, HEp-2, RSV-A Long MOI 0.1, 5 days
[6] = system: RSV; assay: Single-round synchronized infection time-of-addition, RT-qPCR endpoint; format: cell-based, respiratory syncytial virus; settings: HEp-2; MOI 3; cold-synchronized; 2x or 20x EC50; added 0-8 hpi; RT-qPCR at 24 hpi
Experimental: as §1
For single round infection synchronized infection 25,000 HEp-2 cpw seeded 1-day pre-infection. Plates brought to 4°C, viral infection at 3 MOI calculated for 30,000 cpw incubated at 4°C 1hr. Compound added to 0h plate and plates moved to 37°C. Compound added at 2h, 4h, 6h, and 8h post-incubation (when plates moved to 37°C) to appropriate plates. 24 hpi viral copies measured with RT-qPCR as described above.

[7] = system: RSV mRNA transcription and genome replication; assay: RSV minigenome system; format: cell-based, respiratory syncytial virus
[8] = system: broad panel of other viruses; format: cell-based

O=C1Nc2ccccc2C(c2ccccc2)=N[C@@H]1Nc1nnc(-c2ncc(C(F)(F)F)cc2N2CCOCC2)o1 [EDP-938]
EC50 [1]: 16800 nM | EC50 ([2]; 120 h, compound addition at -2 h, HEp-2, RSV-A Long MOI 0.1, CPE 5 days): 49 nM | EC50 ([2]; compound addition at 2 h post-infection): 55 nM | EC50 ([2]; compound addition at 6 h post-infection): 76 nM | EC50 ([2]; compound addition at 24 h post-infection): 66 nM | cytoprotective activity maintained ([2]; when given up to 24 hpi, RSV-A Long MOI 0.1): about 80% | EC50 [3]: 54 to 110 nM | EC50 [4]: 10300 nM | EC90 ([5]; CPE): 60 ± 18 nM | EC50 ([5]; CPE (ATPlite), read-out: EC50): 52 ± 12 nM | inhibition of viral RNA production by time of addition [6]: inhibited RNA production at all time points up to 8 hpi | effect on mRNA transcription or genome replication [7]: had no effect | activity against a broad panel of other viruses [8]: did not demonstrate significant activity
